Test results: patent US8232245B2, “Caspofungin formulations” (Sandoz AG, priority 2006, dated 2012)

Test: Solubility / dissolution in water and solid form stability of caspofungin propionate
Type: physicochemical

CCC(C)CC(C)CCCCCCCCC(=O)N[C@H]1C[C@@H](O)[C@@H](NCCN)NC(=O)[C@@H]2[C@@H](O)CCN2C(=O)[C@H]([C@H](O)CCN)NC(=O)[C@H]([C@H](O)[C@@H](O)c2ccc(O)cc2)NC(=O)[C@@H]2C[C@@H](O)CN2C(=O)[C@H]([C@@H](C)O)NC1=O (stereo partly drawn) [Crystalline caspofungin propionate, caspofungin propionate]
solubility in water: freely soluble in water | stability of solid form (crystalline versus amorphous form): more stable than the amorphous form

CCC(C)CC(C)CCCCCCCCC(=O)N[C@H]1C[C@@H](O)[C@@H](NCCN)NC(=O)[C@@H]2[C@@H](O)CCN2C(=O)[C@H]([C@H](O)CCN)NC(=O)[C@H]([C@H](O)[C@@H](O)c2ccc(O)cc2)NC(=O)[C@@H]2C[C@@H](O)CN2C(=O)[C@H]([C@@H](C)O)NC1=O (stereo partly drawn) [Caspofungin dipropionate, caspofungin dipropionate]
time to dissolve (533.5 mg crystalline salt in 5 ml aqueous mannitol 40 mg/ml / sucrose 60 mg/ml): ≤ 3 min
